From patent US20230159527A1, “COMPOUNDS AS BCL-2 INHIBITORS” (Fochon Pharmaceuticals, Ltd., priority 2020, published 2023)

The compounds below were run on Toledo cells (assay: Cell proliferation assay, Toledo cells (MTS, 72 h)). Settings: Homo sapiens, Toledo cells, MTS, read-out: Toledo IC50.
Assay type: cell-based
Protocol: MTS testing kit was purchased from Promega (Madison, Wis., USA). The RPMI-1640, Fetal bovine serum and Penicillin-Streptomycin were purchased from BI (Biological Industries, Beit Haemek, Israel). Dimethyl sulfoxide (DMSO) was purchased from Sigma (St. Louis, Mo., USA). Toledo (ATCC catalog #: CRL-2631) cells were cultured in RPMI-1640 supplemented with Penicillin-Streptomycin and 10% FBS.
To investigate whether a compound is able to inhibit the activity of BCL-2 in cells, a mechanism-based assay using Toledo lines was developed. In this assay, the inhibition of BCL-2 was reflected by the inhibition of cell proliferation of Toledo cells. Cells were plated into 96-well plates at the optimized cell density of 30000 cells/well. Plates were incubated at 37° C., with 5% CO2 for 4h. Compounds were serially diluted and added to the plates with the final concentrations of 10000, 3333.3, 1111.1, 370.4, 123.5, 41.2, 13.7, 4.6 and 1.5 nM. Plates were incubated at 37° C., with 5% CO2 for 72 h. 20 μl MTS was added into each well and the plates were incubated at 37° C., with 5% CO2 for exactly 2 h. The absorbance was measured by a microplate reader at 490 nm. IC50 was calculated using GraphPad Prism 5.0 software.

SMILES	IC50 [nM]
CC(C)c1ccccc1[C@@H]1CCCN1C1CC2(CCN(c3ccc(C(=O)NS(=O)(=O)c4cc5c(c([N+](=O)[O-])c4)N[C@@H]([C@H]4CC[C@](C)(O)CC4)CO5)c(Oc4cc5cc[nH]c5nc4OC[C@H](C)O)c3)CC2)C1 (single isomer, unassigned) [Example D-70, N-(((S)-3-((1r,4S)-4-hydroxy-4-methylcyclohexyl)-5-nitro-3,4-dihydro-2H-benzo[b][1,4]oxazin-7-yl)sulfonyl)-2-((6-((S)-2-hydroxypropoxy)-1H-pyrrolo[2,3-b]pyridin-5-yl)oxy)-4-(2-((R or S)-2-(2-isopropylphenyl)pyrrolidin-1-yl)-7-azaspiro[3.5]nonan-7-yl)benzamide]	1
CC(C)c1ccccc1[C@@H]1CCCN1C1CC2(CCN(c3ccc(C(=O)NS(=O)(=O)c4cc5c(c([N+](=O)[O-])c4)N[C@@H]([C@H]4CC[C@H](O)CC4)CO5)c(Oc4cnc5[nH]cc(F)c5c4)c3)CC2)C1 (single isomer, unassigned) [Example D-41, 2-((3-fluoro-1H-pyrrolo[2,3-b]pyridin-5-yl)oxy)-N-(((S)-3-((1r,4S)-4-hydroxycyclohexyl)-5-nitro-3,4-dihydro-2H-benzo[b][1,4]oxazin-7-yl)sulfonyl)-4-(2-((R or S)-2-(2-isopropylphenyl)pyrrolidin-1-yl)-7-azaspiro[3.5]nonan-7-yl)benzamide]	1
CC(C)c1ccccc1[C@@H]1COCCN1C1CC2(CCN(c3ccc(C(=O)NS(=O)(=O)c4cnc(NC[C@H]5CC[C@](C)(O)CC5)c([N+](=O)[O-])c4)c(Oc4cc5cc[nH]c5nc4OC(F)F)c3)CC2)C1 (single isomer, unassigned) [Example A-126, 2-((6-(difluoromethoxy)-1H-pyrrolo [2,3-b]pyridin-5-yl)oxy)-N-((6-((((1r,4r)-4-hydroxy-4-methylcyclo-hexyl)methyl)amino)-5-nitropyridin-3-yl)sulfonyl)-4-(2-((R or S)-3-(2-isopropylphenyl)morpholino)-7-azaspiro[3.5]nonan-7-yl) benzamide]	1
CSc1nc2[nH]ccc2cc1Oc1cc(N2CCC3(CC2)CC(N2CCC[C@H]2c2ccccc2C(C)C)C3)ccc1C(=O)NS(=O)(=O)c1cc2c(c([N+](=O)[O-])c1)N[C@@H]([C@H]1CC[C@](C)(O)CC1)CO2 (single isomer, unassigned) [Example D-191, N-(((S)-3-((1r,4S)-4-hydroxy-4-methylcyclohexyl)-5-nitro-3,4-dihydro-2H-benzo[b][1,4]oxazin-7-yl)sulfonyl)-4-(2-((R or S)-2-(2-isopropylphenyl)pyrrolidin-1-yl)-7-azaspiro[3.5]nonan-7-yl)-2-((6-(methylthio)-1H-pyrrolo [2,3-b]pyridin-5-yl)oxy)benzamide]	1
CC(C)c1ccccc1[C@@H]1CCCN1C1CC2(CCN(c3ccc(C(=O)NS(=O)(=O)c4cc5c(c([N+](=O)[O-])c4)N[C@@H]([C@H]4CC[C@](C)(O)CC4)CO5)c(Oc4cc5cc[nH]c5nc4N4CCOCC4)c3)CC2)C1 (single isomer, unassigned) [Example D-57, N-(((S)-3-((1r,4S)-4-hydroxy-4-methylcyclohexyl)-5-nitro-3,4-dihydro-2H-benzo[b][1,4]oxazin-7-yl)sulfonyl)-4-(2-((R or S)-2-(2-isopropylphenyl)pyrrolidin-1-yl)-7-azaspiro[3.5]nonan-7-yl)-2-((6-morpholino-1H-pyrrolo [2,3-b]pyridin-5-yl)oxy)benzamide]	1

Same assay, conditions: Toledo cells, MTS, read-out: Toledo IC50

SMILES	IC50 [nM]
CC(C)c1ccccc1C1COCCN1C1CC2(CCN(c3ccc(C(=O)NS(=O)(=O)c4cc5c(c([N+](=O)[O-])c4)S[C@@H](C4CCC(C)(O)CC4)CO5)c(Oc4cnc5[nH]cc(F)c5c4)c3)CC2)C1 (single isomer, unassigned) [Example E-6, 2-((3-fluoro-1H-pyrrolo[2,3-b]pyridin-5-yl)oxy)-N-(((S)-3-((1r,4S)-4-hydroxy-4-methylcyclohexyl)-5-nitro-2,3-dihydrobenzo [b][1,4]oxathiin-7-yl)sulfonyl)-4-(2-((R or S)-3-(2-isopropylphenyl)morpholino)-7-azaspiro[3.5]nonan-7-yl)benzamide]	1
